# Test results reported in patent US20200069648A1, “HALOALLYLAMINE PYRAZOLE DERIVATIVE INHIBITORS OF LYSYL OXIDASES AND USES THEREOF” (Pharmaxis Ltd., priority 2017, published 2020).
# Structures can show the parent of a compound that is named as a salt.
# Columns and labels:
# [1] = biological target: T1, human recombinant SSAO/VAP-1 (Homo sapiens, UniProt Q16853); assay: Human recombinant SSAO/VAP-1 amine oxidase inhibition; assay type: biochemical; details: 30 min preincubation at 37° C., 600 μM benzylamine
# T1 construct: a cloned cDNA template corresponding to residues 34-763 of human SSAO/VAP-1; TEV cleavage site (N); made in house
# T1 sequence (Q16853 34-763): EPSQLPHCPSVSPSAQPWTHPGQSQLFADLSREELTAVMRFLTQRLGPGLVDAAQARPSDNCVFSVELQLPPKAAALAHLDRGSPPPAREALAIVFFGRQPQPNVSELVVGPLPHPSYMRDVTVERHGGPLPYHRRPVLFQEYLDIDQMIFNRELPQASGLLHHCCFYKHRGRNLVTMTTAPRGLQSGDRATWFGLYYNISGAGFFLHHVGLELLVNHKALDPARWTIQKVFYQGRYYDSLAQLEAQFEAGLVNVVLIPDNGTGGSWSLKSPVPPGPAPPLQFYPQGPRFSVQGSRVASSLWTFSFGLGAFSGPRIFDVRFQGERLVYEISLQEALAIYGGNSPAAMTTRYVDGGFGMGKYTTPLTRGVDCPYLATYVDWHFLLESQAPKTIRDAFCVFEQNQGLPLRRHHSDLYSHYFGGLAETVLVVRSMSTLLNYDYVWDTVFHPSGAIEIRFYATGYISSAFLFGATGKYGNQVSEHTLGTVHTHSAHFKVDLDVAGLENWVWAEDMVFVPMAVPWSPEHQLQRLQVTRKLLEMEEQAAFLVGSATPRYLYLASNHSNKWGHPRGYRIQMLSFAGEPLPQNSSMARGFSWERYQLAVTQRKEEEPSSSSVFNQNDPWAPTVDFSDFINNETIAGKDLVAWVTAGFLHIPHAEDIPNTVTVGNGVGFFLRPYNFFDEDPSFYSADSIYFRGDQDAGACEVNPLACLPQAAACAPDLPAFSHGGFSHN
# Method: Method to Determine the Ability of Compounds of Formula I to Inhibit Human Recombinant SSAO/VAP-1
# Human recombinant SSAO/VAP-1 amine oxidase activity was determined using the coupled colorimetric method as described for monoamine oxidase, copper-containing amine oxidases and related enzymes (Holt A. and Palcic M., A peroxidase-coupled continuous absorbance plate-reader assay for flavin monoamine oxidases, copper-containing amine oxidases and related enzymes. Nat Protoc 2006; 1: 2498-2505). Briefly, a cloned cDNA template corresponding to residues 34-763 of human SSAO/VAP-1, and incorporating a mouse Ig kappa (κ) signal sequence, N-terminal flag epitope tag and tobacco etch virus (TEV) cleavage site, was assembled in a mammalian expression vector (pLO-CMV) by Geneart AG. This vector containing human SSAO/VAP-1 residues was transfected into CHO-K1 glycosylation mutant cell line, Lec 8. A clone stably expressing human SSAO/VAP-1 was isolated and cultured in large scale. Active human SSAO/VAP-I was purified and recovered using immunoaffinity chromatography. This was used as the source for SSAO/VAP-1 activity. A high-throughput colorimetric assay was developed using either 96 or 384 well format. Briefly, in a standard 96 well plate assay 50 μL of purified human SSAO/VAP-1 (0.25 μg/mL) in 0.1 M sodium phosphate buffer (pH 7.4) was added into each well. Test compounds were dissolved in DMSO and tested in a Concentration Response Curve (CRC) with 4-11 data points, typically in the micromolar or nanomolar range after incubation with human SSAO/VAP-1 for 30 min at 37° C. After 30 min incubation, 50 μL of the reaction mixture containing 600 μM benzylamine (Sigma Aldrich), 120 μM Amplex Red (Sigma Aldrich) and 1.5 U/mL horseradish peroxidase (Sigma Aldrich) prepared in 0.1 M sodium phosphate buffer (pH 7.4) were added to the corresponding well. The fluorescence unit (RFU) was read every 2.5 min for 30 min at 37° C. excitation 565 nm and emission 590 (Optima; BMG labtech). The slope of the kinetics for each well was calculated using MARS data analysis software (BMG labtech) and this value was used to deduce the IC50 value (Dotmatics).
# Bovine LOX = biological target: T2, Bovine LOX (Bos taurus, UniProt P33072); assay: LOX amine oxidase inhibition, peroxidase-coupled Amplex Red assay; assay type: biochemical; details: 30 min preincubation at 37° C., putrescine substrate
# T2 sequence (P33072 170-418): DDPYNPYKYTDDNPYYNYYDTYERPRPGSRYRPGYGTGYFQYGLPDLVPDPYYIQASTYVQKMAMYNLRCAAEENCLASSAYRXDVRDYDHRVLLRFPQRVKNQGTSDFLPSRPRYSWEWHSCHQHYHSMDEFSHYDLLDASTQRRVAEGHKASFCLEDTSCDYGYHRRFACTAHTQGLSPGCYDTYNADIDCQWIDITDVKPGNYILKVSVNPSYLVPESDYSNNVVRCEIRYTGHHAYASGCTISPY
# In short: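 Bovine LOX in 1.2 M urea, 50 mM sodium borate pH 8.2 […]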
Structure (SMILES),IC50 [1] [µM],IC50 (Bovine LOX) [µM]
"Cc1nn(C/C(F)=C/CN)c(C)c1Cc1ccc(S(=O)(=O)N2CCOCC2)cc1 [Compound 6, (Z)-4-(3,5-dimethyl-4-(4-(morpholinosulfonyl)benzyl)-1H-pyrazol-1-yl)-3-fluorobut-2-en-1-amine hydrochloride]",> 30,< 10
"CN(C)S(=O)(=O)c1ccc(-c2cnn(C/C(F)=C/CN)c2)cc1 [Compound 1, (Z)-4-(1-(4-amino-2-fluorobut-2-en-1-yl)-1H-pyrazol-4-yl)-N,N-dimethyl benzenesulfonamide hydrochloride]",< 10,< 10
"CC(C)c1nn(C/C(F)=C/CN)c(C(C)O)c1Cc1ccc(S(=O)(=O)N(C)C)c(Cl)c1 (stereo not drawn) [Compound 59, (Z)-4-((1-(4-amino-2-fluorobut-2-en-1-yl)-5-(1-hydroxyethyl)-3-isopropyl-1H-pyrazol-4-yl)methyl)-2-chloro-N,N-dimethylbenzenesulfonamide hydrochloride]",> 30,> 10
"Cc1nn(C/C(F)=C/CN)c(C(C)O)c1Cc1ccc(S(=O)(=O)N(C)C)c(Cl)c1 (single isomer, unassigned) [Compound 52, (Z)-4-((1-(4-amino-2-fluorobut-2-en-1-yl)-5-(1-hydroxyethyl)-3-methyl-1H-pyrazol-4-yl)methyl)-2-chloro-N,N-dimethylbenzenesulfonamide hydrochloride]",> 30,> 10
"Cc1nn(C/C(F)=C/CN)c(C(=O)O)c1Cc1ccc(S(=O)(=O)N(C)C)cc1 [Compound 30, (Z)-1-(4-amino-2-fluorobut-2-enyl)-4-(4-(N,N-dimethylsulfamoyl)benzyl)-3-methyl-1H-pyrazole-5-carboxylic acid hydrochloride]",> 30,> 10
"CCc1nn(C/C(F)=C/CN)c(CC)c1Cc1ccc(S(=O)(=O)N(C)C)cc1 [Compound 13, (Z)-4-((1-(4-amino-2-fluorobut-2-en-1-yl)-3,5-diethyl-1H-pyrazol-4-yl)methyl)-N,N-dimethyl benzenesulfonamide hydrochloride]",> 30,< 10
"Cc1c(Cc2ccc(S(=O)(=O)N(C)C)cc2)c(C(=O)O)nn1C/C(F)=C/CN [Compound 31, (Z)-1-(4-amino-2-fluorobut-2-enyl)-4-(4-(N,N-dimethylsulfamoyl)benzyl)-5-methyl-1H-pyrazole-3-carboxylic acid hydrochloride]",> 30,> 10

# The remaining lines, values ahead:
IC50 [1] [µM],IC50 (Bovine LOX) [µM],Structure (SMILES)
> 30,< 10,"Cc1nn(C/C(F)=C/CN)c(C)c1Cc1ccc(S(C)(=O)=O)cc1 [Compound 4, (Z)-4-(3,5-dimethyl-4-(4-(methylsulfonyl)benzyl)-1H-pyrazol-1-yl)-3-fluorobut-2-en-1-amine hydrochloride]"
> 10,< 10,"Cc1nn(C/C(F)=C/CN)c(C)c1Cc1ccc(S(=O)(=O)N(C)C)c2ccccc12 [Compound 9, (Z)-4-((1-(4-amino-2-fluorobut-2-en-1-yl)-3,5-dimethyl-1H-pyrazol-4-yl)methyl)-N,N-dimethyl naphthalene-1-sulfonamide hydrochloride]"
> 30,< 10,"Cc1nn(C/C(F)=C/CN)c(C)c1Cc1ccc(S(=O)(=O)N(C)C)c(C(F)(F)F)c1 [Compound 18, (Z)-4-((1-(4-amino-2-fluorobut-2-en-1-yl)-3,5-dimethyl-1H-pyrazol-4-yl)methyl)-N,N-dimethyl-2-(trifluoromethyl)benzenesulfonamide hydrochloride]"
< 10,< 10,"Cc1nn(C/C(F)=C/CN)c(C)c1Cc1ccc(S(=O)(=O)NC(C)C)cc1 [Compound 11, (Z)-4-((1-(4-amino-2-fluorobut-2-en-1-yl)-3,5-dimethyl-1H-pyrazol-4-yl)methyl)-N-isopropyl benzenesulfonamide hydrochloride]"
> 10,< 10,"Cc1nn(C/C(F)=C/CN)c(C)c1Cc1ccc(S(C)(=O)=O)c(Cl)c1 [Compound 16, (Z)-4-(4-(3-chloro-4-(methylsulfonyl)benzyl)-3,5-dimethyl-1H-pyrazol-1-yl)-3-fluorobut-2-en-1-amine hydrochloride]"
